From patent publication US6693112B2, “Compounds for enhancing chemotherapy” (The Pennsylvania State University, priority 2000, dated 2004)
Values joined by “and” are separate entries in the source; they are usually repeats but may differ in a detail not shown here. Equal values may be shown once. Read-outs that look alike come from different tables or passages of the source.

Tests used:
MCF-7 cells = assay: Cytotoxicity toward drug-sensitive MCF-7 cells (sulforhodamine B binding assay); type: cell-based, human; details: for Toxicity: percent of MCF-7 cells killed by 10 μ/ml of the compound
MRP = target: T1, MRP (Homo sapiens, UniProt P33527); assay: Reversal of MRP-mediated MDR: enhancement of vincristine cytotoxicity toward MCF-7/VP cells; type: cell-based; details: % survival with compound alone / with compound + 1 nM vincristine; for MRP1 antagonism score: >1.0 = chemosensitization
T1 construct: MCF-7/VP cells, a cell line that expresses MRP; endogenous in cells; host or cells: MCF-7/VP cells
T1 sequence (P33527 whole entry): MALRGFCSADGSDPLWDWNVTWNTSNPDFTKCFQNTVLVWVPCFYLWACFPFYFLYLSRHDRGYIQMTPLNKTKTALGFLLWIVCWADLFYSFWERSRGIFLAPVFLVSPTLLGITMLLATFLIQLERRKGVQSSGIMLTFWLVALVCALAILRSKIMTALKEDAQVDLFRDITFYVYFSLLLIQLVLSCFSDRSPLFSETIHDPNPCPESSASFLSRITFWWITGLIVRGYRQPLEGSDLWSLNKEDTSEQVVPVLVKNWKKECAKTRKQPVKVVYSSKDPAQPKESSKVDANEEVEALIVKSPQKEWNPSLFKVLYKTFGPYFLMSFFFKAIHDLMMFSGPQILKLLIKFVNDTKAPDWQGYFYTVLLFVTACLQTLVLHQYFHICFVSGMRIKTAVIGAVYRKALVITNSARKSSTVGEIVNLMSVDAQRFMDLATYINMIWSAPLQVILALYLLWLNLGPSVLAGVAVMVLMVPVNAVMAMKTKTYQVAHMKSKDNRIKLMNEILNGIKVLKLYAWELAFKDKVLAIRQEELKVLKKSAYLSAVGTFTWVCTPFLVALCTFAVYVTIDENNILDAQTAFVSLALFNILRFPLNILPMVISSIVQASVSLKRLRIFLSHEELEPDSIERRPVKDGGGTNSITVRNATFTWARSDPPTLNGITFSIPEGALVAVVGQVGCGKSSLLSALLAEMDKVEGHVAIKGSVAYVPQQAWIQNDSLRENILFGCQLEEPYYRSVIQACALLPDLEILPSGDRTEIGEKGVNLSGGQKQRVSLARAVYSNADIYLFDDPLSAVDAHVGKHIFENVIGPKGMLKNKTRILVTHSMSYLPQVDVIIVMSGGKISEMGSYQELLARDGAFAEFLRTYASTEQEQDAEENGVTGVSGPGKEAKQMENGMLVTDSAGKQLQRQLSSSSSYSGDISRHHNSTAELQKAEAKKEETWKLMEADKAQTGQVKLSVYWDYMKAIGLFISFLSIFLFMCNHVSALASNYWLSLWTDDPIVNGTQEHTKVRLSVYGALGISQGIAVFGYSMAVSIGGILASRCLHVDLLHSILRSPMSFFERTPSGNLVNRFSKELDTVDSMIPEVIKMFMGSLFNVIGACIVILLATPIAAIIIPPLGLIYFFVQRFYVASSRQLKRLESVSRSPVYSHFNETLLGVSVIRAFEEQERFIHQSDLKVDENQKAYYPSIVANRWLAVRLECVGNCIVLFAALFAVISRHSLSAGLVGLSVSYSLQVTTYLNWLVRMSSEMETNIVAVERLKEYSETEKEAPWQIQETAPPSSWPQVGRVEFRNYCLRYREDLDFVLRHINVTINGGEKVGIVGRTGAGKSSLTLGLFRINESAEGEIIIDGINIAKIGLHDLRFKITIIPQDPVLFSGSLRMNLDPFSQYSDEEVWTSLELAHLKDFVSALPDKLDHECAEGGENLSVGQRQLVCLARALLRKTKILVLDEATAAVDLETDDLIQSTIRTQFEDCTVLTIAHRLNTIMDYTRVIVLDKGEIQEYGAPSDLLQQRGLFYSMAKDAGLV
Protocol: Reversal of MRP-mediated MDR was examined by plating MCF-7/VP cells as described above and exposing the cells to varying concentrations of phenoxymethylquinoxalinone compounds in the absence or presence of 1 nM vincristine for 48 hours. Cell survival was assayed as described above. The percentage of cells that died following treatment was calculated as described above. Inhibition of MRP was manifested as the ability of the compound to enhance the cytotoxicity of vincristine toward MCF-7/VP cells.
Chemosensitization is indicated by a score greater than 1.0.
Chemosensitization is indicated by a score greater than 1.0. […]

P-gp = P-gp (Homo sapiens, UniProt P08183); details: for P-gp antagonism score / Pgp Antagonism: % survival with compound alone / with compound + 50 nM vinblastine; for P-gp antagonism score: >1.0 = chemosensitization; for p-GP/MRP1: ratio of P-gp and MRP1 antagonism scores
P-gp, sequence (P08183 whole entry): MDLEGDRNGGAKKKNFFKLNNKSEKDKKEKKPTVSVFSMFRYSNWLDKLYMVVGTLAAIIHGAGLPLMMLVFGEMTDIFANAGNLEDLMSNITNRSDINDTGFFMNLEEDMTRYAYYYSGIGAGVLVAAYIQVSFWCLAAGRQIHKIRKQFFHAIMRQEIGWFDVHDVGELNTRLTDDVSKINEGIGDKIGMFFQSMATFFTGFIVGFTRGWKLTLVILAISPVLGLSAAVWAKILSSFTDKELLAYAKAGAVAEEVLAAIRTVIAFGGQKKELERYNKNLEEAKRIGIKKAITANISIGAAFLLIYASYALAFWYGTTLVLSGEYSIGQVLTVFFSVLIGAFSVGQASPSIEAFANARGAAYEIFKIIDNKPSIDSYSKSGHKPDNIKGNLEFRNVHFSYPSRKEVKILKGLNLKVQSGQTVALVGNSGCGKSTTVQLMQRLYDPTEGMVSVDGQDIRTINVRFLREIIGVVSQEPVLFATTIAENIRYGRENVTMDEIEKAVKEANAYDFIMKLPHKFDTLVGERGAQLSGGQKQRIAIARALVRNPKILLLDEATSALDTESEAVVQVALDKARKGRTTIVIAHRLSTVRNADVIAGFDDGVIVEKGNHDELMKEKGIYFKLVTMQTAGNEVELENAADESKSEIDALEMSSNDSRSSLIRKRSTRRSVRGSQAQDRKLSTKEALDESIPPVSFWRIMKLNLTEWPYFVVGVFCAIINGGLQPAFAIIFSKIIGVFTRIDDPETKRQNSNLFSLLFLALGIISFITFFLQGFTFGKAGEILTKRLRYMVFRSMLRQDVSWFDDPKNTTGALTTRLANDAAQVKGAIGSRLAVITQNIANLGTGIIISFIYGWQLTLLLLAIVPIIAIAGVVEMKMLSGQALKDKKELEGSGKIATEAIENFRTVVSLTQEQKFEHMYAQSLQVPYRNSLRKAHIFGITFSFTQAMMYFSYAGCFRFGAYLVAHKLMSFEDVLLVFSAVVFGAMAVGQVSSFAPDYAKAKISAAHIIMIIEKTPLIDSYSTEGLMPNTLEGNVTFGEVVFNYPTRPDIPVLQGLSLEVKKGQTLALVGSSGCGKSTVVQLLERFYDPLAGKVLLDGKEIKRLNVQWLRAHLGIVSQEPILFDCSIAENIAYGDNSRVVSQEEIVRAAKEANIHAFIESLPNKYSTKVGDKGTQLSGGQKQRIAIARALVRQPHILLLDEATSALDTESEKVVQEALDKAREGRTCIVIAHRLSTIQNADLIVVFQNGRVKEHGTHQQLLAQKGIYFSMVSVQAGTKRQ
Protocol: The percentage of cells that died following treatment was calculated as a percent decrease in sulforhodamine B binding as compared with control cultures. […] Inhibition of P-gp was manifested as the ability of the compound to enhance the cytotoxicity of vinblastine toward NCI/ADR cells. To assess the toxicity of the compounds toward drug-sensitive cells, the effects of the compounds on the growth of drug-sensitive MCF-7 cells were determined using the same methods.
The P-gp antagonism score was calculated by dividing the percent survival of NCI/ADR cells treated with the compound alone by the percent survival of NCI/ADR cells treated with the compound in the presence of 50 nM vinblastine. Chemosensitization is indicated by a score of more than 1.0.
The P-gp antagonism score was calculated by dividing the percent survival of NCI/ADR cells treated with […] by the percent survival of NCI/ADR cells treated with the compound in the presence of 50 nM vinblastine.

[1] = MCF-7 cells, 48 hours, concentration required to kill 50% of the cells, * = maximum dose tested (low solubility)
[2] = MCF-7 cells, concentration required to kill 50% of the cells
[3] = concentration of compound at the maximum antagonism

SMILES | MRP1 antagonism score (MRP) | Toxicity (MCF-7 cells) | Pgp Antagonism (P-gp; NCI/ADR cells) | MRP Antagonism (MRP) | other results
Cn1c(=O)c(COc2ccccc2)nc2ccccc21 [Compound 1, 1-Methyl-3-phenoxymethyl-1H-quinoxalin-2-one] | 1.0 | – | – | – | IC50 (MCF-7 cells; Homo sapiens, MCF7, 48 h): > 94 µM
Cn1c(=O)c(COc2ccc(F)cc2)nc2ccccc21 [Compound 2] | 0.8 | – | – | – | IC50 (MCF-7 cells; [1]): 26 µM
Cn1c(=O)c(COc2ccc(C#N)cc2)nc2ccccc21 [Compound 3, 3-(4-Cyano-phenoxymethyl)-1-methyl-1H-quinoxalin-2-one] | 0.8 | – | – | – | IC50 (MCF-7 cells; Homo sapiens, MCF7, 48 h): > 43 µM
Cn1c(=O)c(COc2c(F)c(F)c(F)c(F)c2F)nc2ccccc21 [Compound 4] | 0.8 | – | – | – | IC50 (MCF-7 cells; [1]): > 70 µM; P-gp antagonism score (P-gp; NCI/ADR cells): 2.1; p-GP/MRP1 (P-gp): 2.6
Cn1c(=O)c(COc2ccc(C(=O)c3ccccc3)cc2)nc2ccccc21 [Compound 8, 3-(4-Benzoyl-phenoxymethyl)-1-methyl-1H-quinoxalin-2-one] | 0.9 | – | – | – | IC50 (MCF-7 cells; Homo sapiens, MCF7, 48 h): > 67 µM
Cc1cc(OCc2nc3ccccc3n(C)c2=O)ccc1[N+](=O)[O-] [Compound 9] | 1.1 | – | – | – | IC50 (MCF-7 cells; [1]): > 77 µM; P-gp antagonism score (P-gp; NCI/ADR cells): 1.6; p-GP/MRP1 (P-gp): 1.4
COC(=O)c1ccc(OCc2nc3ccccc3n(C)c2=O)c(OC)c1 [Compound 10, 3-Methoxy-4-(4-methyl-3-oxo-3,4-dihydroquinoxalin-2-yl-methoxy)-benzoyl methyl ester] | 1.1 | – | – | – | IC50 (MCF-7 cells; [1]): 71 µM; P-gp antagonism score (P-gp; NCI/ADR cells): 5.6; p-GP/MRP1 (P-gp): 5.2
Cn1c(=O)c(COc2ccccc2C(=O)Nc2ccccc2)nc2ccccc21 [Compound 11, 2-(4-Methyl-3-oxo-3,4-dihydroquinoxalin-2-yl-methoxy)-N-phenylbenzamide] | 1.0 | – | – | – | IC50 (MCF-7 cells; Homo sapiens, MCF7, 48 h): > 32 µM
CN(C)c1cccc(OCc2nc3ccccc3n(C)c2=O)c1 [Compound 12] | 0.9 | – | – | – | IC50 (MCF-7 cells; [1]): 57 µM; P-gp antagonism score (P-gp; NCI/ADR cells): 1.1; p-GP/MRP1 (P-gp): 1.1
CCOC(=O)c1ccc(OCc2nc3ccccc3n(C)c2=O)cc1 [Compound 13, 4-(4-Methyl-3-oxo-3,4-dihydro-quinoxalin-2-ylmethoxy)-benzoyl ethyl ester] | 0.9 | – | – | – | IC50 (MCF-7 cells; [1]): > 74 µM; P-gp antagonism score (P-gp; NCI/ADR cells): 3.8; p-GP/MRP1 (P-gp): 4.2
Cn1c(=O)c(COc2cccc(Nc3ccccc3)c2)nc2ccccc21 [Compound 14] | 0.9 | – | – | – | IC50 (MCF-7 cells; [1]): 25 µM; P-gp antagonism score (P-gp; NCI/ADR cells): 1.3; p-GP/MRP1 (P-gp): 1.5
Cn1c(=O)c(COc2ccccc2Cc2ccccc2)nc2ccccc21 [Compound 15] | 1.1 | – | – | – | IC50 (MCF-7 cells; [1]): 8.1 µM; P-gp antagonism score (P-gp; NCI/ADR cells): 1.0; p-GP/MRP1 (P-gp): 0.9
Cn1c(=O)c(COc2cccnc2)nc2ccccc21 [Compound 16] | 1.1 | – | – | – | IC50 (MCF-7 cells; [1]): > 56 µM; P-gp antagonism score (P-gp; NCI/ADR cells): 1.0; p-GP/MRP1 (P-gp): 0.9
Cn1c(=O)c(COc2ccc(-c3ccccc3)cc2)nc2ccccc21 [Compound 17] | 0.7 | – | – | – | IC50 (MCF-7 cells; [1]): 30 µM
COc1cc(OC)cc(OCc2nc3ccccc3n(C)c2=O)c1 [Compound 21] | 0.9 | – | – | – | IC50 (MCF-7 cells; [1]): 25 µM
COc1ccc(OCc2nc3ccccc3n(C)c2=O)cc1OC [Compound 22] | 0.9 | – | – | – | IC50 (MCF-7 cells; [1]): 28 µM
COc1cc(OCc2nc3ccccc3n(C)c2=O)cc(OC)c1OC [Compound 23] | 0.9 | – | – | – | IC50 (MCF-7 cells; [1]): 21 µM; P-gp antagonism score (P-gp; NCI/ADR cells): 1.2; p-GP/MRP1 (P-gp): 1.3
CN1CCc2c1nc1cc(Br)ccc1c2N [Compound 36] | – | 99% and 94% | 1.3 | 1.6 | –
CCC(=O)Nc1c2c(nc3ccccc13)N(C)CC2 [Compound 37] | – | – | 1.6 | 1.0 | –
CN1CCc2c1nc1ccccc1c2NC(=O)Cc1ccccc1 [Compound 38] | – | – | – | 1.0 | –
CC(C)NCC(=O)Nc1c2c(nc3ccccc13)N(C)CC2 [Compound 39] | – | 39% | 1.8 | 1.4 | –
CN1CCc2c1nc1ccccc1c2NC(=O)CNC(C)(C)C [Compound 40] | – | 28% | 3.2 | 1.2 | –
CCN(CC)CC(=O)Nc1c2c(nc3ccccc13)N(C)CC2 [Compound 41] | – | 30% | 6.0 | 1.2 | –

SMILES | MRP1 antagonism score (MRP) | Toxicity (MCF-7 cells) | Pgp Antagonism (P-gp; NCI/ADR cells) | MRP Antagonism (MRP) | other results
CN1CCc2c1nc1ccccc1c2NC(=O)CN1CCCCC1 [Compound 42] | – | 51% | 4.1 | 1.2 | –
CCCCN(CCCC)CC(=O)Nc1c2c(nc3ccccc13)N(C)CC2 [Compound 43] | – | 50% | 4.2 | 1.3 | –
CN1CCc2c1nc1ccccc1c2NC(=O)CNCCc1ccc(O)cc1 [Compound 44] | – | 21% | 1.7 | 1.4 | –
CN1CCc2c1nc1ccccc1c2NC(=O)C12CC3CC(CC(C3)C1)C2 [Compound 45] | – | 29% | 4.7 | 0.9 | –
CN1CCc2c1nc1ccccc1c2NC(=O)CCc1cc(C(C)(C)C)c(O)c(C(C)(C)C)c1 [Compound 46] | – | 99% | 1.0 | 1.0 | –
CN1CCc2c1nc1ccccc1c2N=C(c1ccccc1)N1CCCCC1 [Compound 47] | – | 58% | 2.4 | 1.0 | –
Nc1c2c(nc3ccccc13)N(C1CCCCC1)CC2 [Compound 49] | – | 97% | 0.8 | 0.6 | –
Nc1c2c(nc3ccccc13)N(c1ccccc1)CC2 [Compound 51] | – | 52% | 2.7 | 1.1 | –
O=C(Nc1c2c(nc3ccccc13)N(Cc1cccc(Cl)c1)CC2)C12CC3CC(CC(C3)C1)C2 [Compound 52] | – | 33% | 1.2 | 1.2 | –
Nc1c2c(nc3ccccc13)N(Cc1ccccc1)CC2 [Compound 53] | – | 47% | 3.1 | 1.0 | –
CC(C)NCC(=O)Nc1c2c(nc3ccccc13)N(Cc1ccccc1)CC2 [Compound 59] | – | 45% | 13.0 | 0.99 | –
CC(C)(C)NCC(=O)Nc1c2c(nc3ccccc13)N(Cc1ccccc1)CC2 [Compound 60] | – | 29% | – | – | –
CCN(CC)CC(=O)Nc1c2c(nc3ccccc13)N(Cc1ccccc1)CC2 [Compound 61] | – | 14% | 14.8 | 0.98 | –
O=C(CN1CCCCC1)Nc1c2c(nc3ccccc13)N(Cc1ccccc1)CC2 [Compound 62] | – | 0% | 17.8 | 1.1 and 1.09 | –
CN1CCN(CC(=O)Nc2c3c(nc4ccccc24)N(Cc2ccccc2)CC3)CC1 [Compound 63] | – | 21% | 7.5 | 1.07 | –
CC(C)(C)c1cc(CCC(=O)Nc2c3c(nc4ccccc24)N(Cc2ccccc2)CC3)cc(C(C)(C)C)c1O [Compound 64] | – | 50% | 13.2 | 1.15 | –
Nc1c2c(nc3ccccc13)N(Cc1ccccc1)CC2 [Compound 4001] | – | – | – | – | Toxicity IC50 (MCF-7 cells; [2]): 1.7 µg/mL; Antagonism at IC20 or less, P-gp (P-gp): 1.0; Maximum Antagonism (P-gp): 4.0 (3.1); Maximum Antagonism (conc. μg/ml) (P-gp): 4.0 (3.1) μg/ml
Fc1cccc(CNc2c3c(nc4ccccc24)N(Cc2ccccc2)CC3)c1 [Compound 4003] | – | – | – | – | Toxicity IC50 (MCF-7 cells; [2]): >25 µg/mL; Maximum Antagonism (conc. μg/ml) (P-gp; [3]): 25 µg/mL
COc1cc(CNc2c3c(nc4ccccc24)N(Cc2ccccc2)CC3)cc(OC)c1 [Compound 4005] | – | – | – | – | Toxicity IC50 (MCF-7 cells; [2]): 20 µg/mL; Maximum Antagonism (conc. μg/ml) (P-gp; [3]): 25 µg/mL
O=C(CN1CCCCC1)Nc1c2c(nc3ccccc13)N(Cc1ccccc1)CC2 [Compound 4007] | – | – | – | – | Toxicity IC50 (MCF-7 cells; [2]): 6 µg/mL; potency of P-gp antagonism compared with verapamil (P-gp; FIG. 7, NCI/ADR cells, 50 nM vinblastine): somewhat more potent than verapamil; Maximum Antagonism (conc. μg/ml) (P-gp; [3]): 3.1 µg/mL
O=C(Nc1c2c(nc3ccccc13)N(Cc1ccccc1)CC2)c1c(F)cccc1C(F)(F)F [Compound 4009] | – | – | – | – | Toxicity IC50 (MCF-7 cells; [2]): 6 µg/mL; Maximum Antagonism (conc. μg/ml) (P-gp; [3]): 3.1 µg/mL
O=C(Nc1c2c(nc3ccccc13)N(Cc1ccccc1)CC2)c1ccc(F)c(C(F)(F)F)c1 [Compound 4010] | – | – | – | – | Toxicity IC50 (MCF-7 cells; [2]): 9 µg/mL; Maximum Antagonism (conc. μg/ml) (P-gp; [3]): 3.1 µg/mL
